From patent US20090298820A1, “3-SUBSTITUTED-1H-PYRROLO[2,3-B]PYRIDINE AND 3-SUBSTITUTED-1H-PYRROLO[3,2-B]PYRIDINE COMPOUNDS, THEIR USE AS MTOR KINASE AND PI3 KINASE INHIBITORS, AND THEIR SYNTHESES” (Wyeth, priority 2008, published 2009) come the findings set out here.

pIC50: −log10 of the molar value. Bounds are passed on as bounds.

Data set [1] addresses PI3Kα (Homo sapiens, UniProt P42336). Description: PI3K-alpha fluorescence polarization assay. It counts as biochemical. To be noted: read-out: PI3Kα Median IC50. (In general: Fluorescence polarisation rises when a labelled molecule tumbles more slowly, as on binding a larger partner.)
Data set [2] addresses PI3Kγ (Homo sapiens, UniProt P48736). Description: PI3K-gamma fluorescence polarization assay. It counts as biochemical. To be noted: read-out: PI3Kγ Median IC50.
For data set [3], the target named is mTOR (Homo sapiens, UniProt P42345). Nature of the data set: mTOR enzyme assay (DELFIA format, His6-S6K substrate). It counts as biochemical. To be noted: read-out: mTOR Kinase Median IC50.

Sequence of PI3Kγ (P48736 whole entry, species assumed): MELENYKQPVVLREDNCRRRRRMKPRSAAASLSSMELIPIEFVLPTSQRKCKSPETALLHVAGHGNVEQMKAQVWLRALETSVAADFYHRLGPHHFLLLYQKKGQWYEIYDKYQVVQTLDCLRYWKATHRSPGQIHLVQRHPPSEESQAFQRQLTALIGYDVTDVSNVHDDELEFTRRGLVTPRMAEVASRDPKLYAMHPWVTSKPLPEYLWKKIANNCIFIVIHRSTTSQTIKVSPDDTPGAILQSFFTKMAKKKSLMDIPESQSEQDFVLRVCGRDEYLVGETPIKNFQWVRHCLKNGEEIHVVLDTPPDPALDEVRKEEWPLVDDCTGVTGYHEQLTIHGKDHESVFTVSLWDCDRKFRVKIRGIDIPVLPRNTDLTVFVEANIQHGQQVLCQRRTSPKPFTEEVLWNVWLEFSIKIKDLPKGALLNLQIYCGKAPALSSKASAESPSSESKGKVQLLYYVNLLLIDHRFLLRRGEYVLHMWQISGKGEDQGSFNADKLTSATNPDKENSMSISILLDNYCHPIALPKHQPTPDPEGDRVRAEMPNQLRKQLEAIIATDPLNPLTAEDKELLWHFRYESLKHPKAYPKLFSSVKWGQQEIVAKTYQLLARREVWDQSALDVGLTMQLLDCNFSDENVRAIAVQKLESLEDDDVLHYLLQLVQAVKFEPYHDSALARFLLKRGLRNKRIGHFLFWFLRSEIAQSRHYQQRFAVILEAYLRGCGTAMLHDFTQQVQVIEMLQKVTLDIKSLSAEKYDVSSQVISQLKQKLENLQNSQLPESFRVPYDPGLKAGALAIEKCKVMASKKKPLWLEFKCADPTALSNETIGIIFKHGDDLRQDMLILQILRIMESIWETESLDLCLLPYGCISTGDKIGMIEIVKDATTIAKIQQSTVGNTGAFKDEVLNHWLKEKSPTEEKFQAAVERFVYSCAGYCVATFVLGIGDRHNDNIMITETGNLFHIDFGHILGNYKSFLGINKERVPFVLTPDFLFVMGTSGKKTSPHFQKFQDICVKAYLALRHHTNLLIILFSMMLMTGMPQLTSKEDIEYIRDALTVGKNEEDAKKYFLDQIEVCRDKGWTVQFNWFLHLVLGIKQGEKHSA
Sequence of PI3Kα (P42336 whole entry, species assumed): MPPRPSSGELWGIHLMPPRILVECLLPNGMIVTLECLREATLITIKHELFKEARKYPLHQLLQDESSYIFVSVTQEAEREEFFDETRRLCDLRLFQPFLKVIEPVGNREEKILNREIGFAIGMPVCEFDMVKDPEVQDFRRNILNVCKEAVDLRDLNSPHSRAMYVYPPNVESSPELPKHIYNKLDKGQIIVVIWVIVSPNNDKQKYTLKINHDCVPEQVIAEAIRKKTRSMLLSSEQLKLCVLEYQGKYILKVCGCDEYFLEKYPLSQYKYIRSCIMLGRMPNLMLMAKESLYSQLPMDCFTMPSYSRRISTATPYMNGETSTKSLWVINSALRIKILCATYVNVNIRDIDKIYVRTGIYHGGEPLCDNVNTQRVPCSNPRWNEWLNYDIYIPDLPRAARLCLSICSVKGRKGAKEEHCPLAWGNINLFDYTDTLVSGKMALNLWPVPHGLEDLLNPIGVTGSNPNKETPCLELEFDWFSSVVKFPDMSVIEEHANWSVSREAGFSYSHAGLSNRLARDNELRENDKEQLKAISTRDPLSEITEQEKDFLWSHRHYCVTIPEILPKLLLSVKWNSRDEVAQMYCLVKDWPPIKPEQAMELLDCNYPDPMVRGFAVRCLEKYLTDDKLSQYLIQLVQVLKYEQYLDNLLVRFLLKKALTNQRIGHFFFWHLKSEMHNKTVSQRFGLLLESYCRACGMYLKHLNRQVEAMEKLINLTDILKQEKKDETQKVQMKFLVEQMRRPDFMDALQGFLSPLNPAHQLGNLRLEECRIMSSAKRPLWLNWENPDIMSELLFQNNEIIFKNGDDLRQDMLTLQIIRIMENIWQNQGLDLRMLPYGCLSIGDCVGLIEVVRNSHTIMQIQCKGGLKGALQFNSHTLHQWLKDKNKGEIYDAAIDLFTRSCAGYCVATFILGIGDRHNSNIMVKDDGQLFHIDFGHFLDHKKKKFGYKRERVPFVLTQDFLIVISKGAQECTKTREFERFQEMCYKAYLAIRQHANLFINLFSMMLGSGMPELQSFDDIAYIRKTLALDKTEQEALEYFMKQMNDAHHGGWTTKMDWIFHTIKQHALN
Sequence of PI3Kα (P27986 whole entry partner, species assumed): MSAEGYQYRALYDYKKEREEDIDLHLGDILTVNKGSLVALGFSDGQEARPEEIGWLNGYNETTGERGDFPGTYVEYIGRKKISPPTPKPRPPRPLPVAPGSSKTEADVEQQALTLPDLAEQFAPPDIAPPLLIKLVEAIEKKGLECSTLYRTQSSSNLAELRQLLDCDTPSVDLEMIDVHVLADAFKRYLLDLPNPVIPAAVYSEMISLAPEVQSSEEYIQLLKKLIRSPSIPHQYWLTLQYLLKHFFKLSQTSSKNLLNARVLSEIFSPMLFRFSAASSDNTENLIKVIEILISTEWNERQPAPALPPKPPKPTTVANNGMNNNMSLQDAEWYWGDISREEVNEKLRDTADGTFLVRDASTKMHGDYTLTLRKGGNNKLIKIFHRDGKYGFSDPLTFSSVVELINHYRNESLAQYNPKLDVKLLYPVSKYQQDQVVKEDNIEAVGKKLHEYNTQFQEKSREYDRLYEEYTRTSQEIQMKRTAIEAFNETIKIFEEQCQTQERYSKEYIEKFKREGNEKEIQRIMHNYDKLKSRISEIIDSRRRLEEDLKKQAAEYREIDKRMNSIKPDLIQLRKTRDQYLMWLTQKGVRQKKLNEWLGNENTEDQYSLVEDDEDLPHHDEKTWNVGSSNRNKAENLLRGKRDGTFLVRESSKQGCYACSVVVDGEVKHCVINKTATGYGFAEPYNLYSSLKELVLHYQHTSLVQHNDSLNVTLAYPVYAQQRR

A word on the melting point: it is the temperature of the solid-liquid transition. Broadly, the pIC50 is the negative decadic logarithm of the IC50, by convention in mol/L. `Cn1cc(/C=C2\Oc3cccc(O)c3C2=O)c2c(-c3ccc(CO)nc3)ccnc21` [Compound 76, (2Z)-4-hydroxy-2-({4-[6-(hydroxymethyl)pyridin-3-yl]-1-methyl-1H-pyrrolo[2,3-b]pyridin-3-yl}methylene)-1-benzofuran-3(2H)-one] gave a melting point of 270 to 275 °C. The pIC50 in data set [1] is 7.39. Besides, the pIC50 in data set [2] was 6.88. Also, in data set [3], the negative-log IC50 (pIC50) is 8.07.

`CC1CN(c2ccnc3c2c(/C=C2\Oc4cccc(O)c4C2=O)cn3C)CC(C)O1` (stereo not drawn) [Compound 93, (2Z)-2-{[4-(2,6-dimethylmorpholin-4-yl)-1-methyl-1H-pyrrolo[2,3-b]pyridin-3-yl]methylene}-4-hydroxy-1-benzofuran-3(2H)-one] came in with a melting point of 280 °C. Moreover, the pIC50 in data set [1] was 7.07. Besides, the pIC50 in data set [2] was 6.91. Besides, the pIC50 in data set [3] is 8.89.

`Cn1cc(/C=C2\Oc3cc(O)cc(O)c3C2=O)c2c(Oc3ccccc3)ccnc21` [Compound 94, (2Z)-4,6-dihydroxy-2-[(1-methyl-4-phenoxy-1H-pyrrolo[2,3-b]pyridin-3-yl)methylene]-1-benzofuran-3(2H)-one] returned a melting point of 330 to 332 °C. In addition, the pIC50 in data set [1] was 7.37. The pIC50 in data set [2] was 6.45. Moreover, in data set [3], the negative-log IC50 (pIC50) is 7.98.

Regarding `Cn1cc(/C=C2\Oc3cccc(O)c3C2=O)c2c(O)ccnc21` [Compound 95, (2Z)-4-hydroxy-2-[(4-hydroxy-1-methyl-1H-pyrrolo[2,3-b]pyridin-3-yl)methylene]-1-benzofuran-3(2H)-one], the melting point is 325 °C. In data set [1], the pIC50 was 6.32. Also, the pIC50 in data set [2] is 5.49. The pIC50 in data set [3] is 5.70.

As to `CNC(=O)Nc1cccc2c1C(=O)/C(=C/c1cn(C)c3nccc(-c4ccccc4)c13)O2` [Compound 99, 1-methyl-3-{(2Z)-2-[(1-methyl-4-phenyl-1H-pyrrolo[2,3-b]pyridin-3-yl)methylene]-3-oxo-2,3-dihydro-1-benzofuran-4-yl}urea], the melting point lay in the range of 273 to 275 °C. Further, the pIC50 in data set [1] is less than 5.00. For the same compound, the pIC50 in data set [2] is 5.65. Also, the pIC50 in data set [3] was 5.46.

In turn, `CC1CC(C)CN(c2ccnc3c2c(/C=C2\Oc4cccc(O)c4C2=O)cn3C)C1` (stereo not drawn) [Compound 100, (2Z)-2-{[4-(3,5-dimethylpiperidin-1-yl)-1-methyl-1H-pyrrolo[2,3-b]pyridin-3-yl]methylene}-4-hydroxy-1-benzofuran-3(2H)-one] displayed a melting point of 235 to 240 °C. Moreover, the pIC50 in data set [1] was 6.09. Besides, the pIC50 in data set [2] was less than 5.00. Also, the pIC50 in data set [3] is 7.82.

`Cn1cc(/C=C2\Oc3cccc(O)c3C2=O)c2c(N3CC4CC3CN4)ccnc21` (stereo not drawn) [Compound 101, (2Z)-2-{[4-(2,5-diazabicyclo[2.2.1]hept-2-yl)-1-methyl-1H-pyrrolo[2,3-b]pyridin-3-yl]methylene}-4-hydroxy-1-benzofuran-3(2H)-one]: the melting point stood at 325 °C. Also, the pIC50 in data set [1] was 7.70. The pIC50 in data set [2] is 6.47. Further, the pIC50 in data set [3] was 7.97.

The compound `Cn1cc(/C=C2\Oc3cccc(O)c3C2=O)c2c(N3CCSCC3)ccnc21` [Compound 102, (2Z)-4-hydroxy-2-[(1-methyl-4-thiomorpholin-4-yl-1H-pyrrolo[2,3-b]pyridin-3-yl)methylene]-1-benzofuran-3(2H)-one] gave a melting point of 285 to 290 °C. Besides, in data set [1], the pIC50 was 6.98. For the same compound, the pIC50 in data set [2] was 6.57. Moreover, in data set [3], the pIC50 was 8.72.

For the compound `Cn1cc(/C=C2\Oc3cccc(O)c3C2=O)c2c(-c3cccc(C(=O)N4CCCC4)c3)ccnc21` [Compound 103, (2Z)-4-hydroxy-2-({1-methyl-4-[3-(pyrrolidin-1-ylcarbonyl)phenyl]-1H-pyrrolo[2,3-b]pyridin-3-yl}methylene)-1-benzofuran-3(2H)-one], the melting point was in the range of 233 to 235 °C. Also, the pIC50 in data set [1] was 6.74. In data set [2], the pIC50 was 6.77. The negative logarithm of the IC50 (pIC50) in data set [3] is 8.18.

Take `Cn1cc(/C=C2\Oc3cccc(O)c3C2=O)c2c(N3CCN(C(=O)N4CCCC4)CC3)ccnc21` [Compound 104, (2Z)-4-hydroxy-2-({1-methyl-4-[4-(pyrrolidin-1-ylcarbonyl)piperazin-1-yl]-1H-pyrrolo[2,3-b]pyridin-3-yl}methylene)-1-benzofuran-3(2H)-one]: the melting point is 223 to 225 °C. Further, the pIC50 in data set [1] is 7.15. The negative-log IC50 (pIC50) in data set [2] is 6.61. Moreover, the pIC50 in data set [3] is 8.54.

Compound `Cn1cc(/C=C2\Oc3cccc(O)c3C2=O)c2c(N3CC4(C)CC3CC(C)(C)C4)ccnc21` (stereo not drawn) [Compound 105, (2Z)-4-hydroxy-2-{[1-methyl-4-(1,3,3-trimethyl-6-azabicyclo[3.2.1]oct-6-yl)-1H-pyrrolo[2,3-b]pyridin-3-yl]methylene}-1-benzofuran-3(2H)-one] registered a melting point of 220 to 223 °C. Besides, the pIC50 in data set [1] was less than 5.00. In addition, in data set [2], the pIC50 is less than 5.00. Besides, the negative logarithm of the IC50 (pIC50) in data set [3] was 7.16.

For `Cn1cc(/C=C2\Oc3cccc(O)c3C2=O)c2c(-c3ccc(C(F)(F)F)cc3)ccnc21` [Compound 106, (2Z)-4-hydroxy-2-({1-methyl-4-[4-(trifluoromethyl)phenyl]-1H-pyrrolo[2,3-b]pyridin-3-yl}methylene)-1-benzofuran-3(2H)-one], the melting point is 244 to 254 °C. Also, the pIC50 in data set [1] is 5.22. In data set [2], the pIC50 is less than 5.00. The pIC50 in data set [3] is 8.13.

For the compound `Cn1cc(/C=C2\Oc3cccc(O)c3C2=O)c2c(-c3cccc(C(F)(F)F)c3)ccnc21` [Compound 107, (2Z)-4-hydroxy-2-({1-methyl-4-[3-(trifluoromethyl)phenyl]-1H-pyrrolo[2,3-b]pyridin-3-yl}methylene)-1-benzofuran-3(2H)-one], the melting point lay in the range of 262 to 265 °C. For the same compound, the pIC50 in data set [1] is 6.41. For the same compound, the pIC50 in data set [2] is 6.17. Further, the negative-log IC50 (pIC50) in data set [3] was 7.91.

Compound `Cn1cc(/C=C2\Oc3cccc(N)c3C2=O)c2c(-c3ccccc3)ccnc21` [Compound 108, (2Z)-4-amino-2-[(1-methyl-4-phenyl-1H-pyrrolo[2,3-b]pyridin-3-yl)methylene]-1-benzofuran-3(2H)-one] came in with a melting point of 262 to 268 °C. Besides, in data set [1], the pIC50 is 5.21. Besides, the pIC50 in data set [2] is less than 5.00. Moreover, in data set [3], the pIC50 was 7.28.

With `Cn1cc(/C=C2\Oc3cccc(O)c3C2=O)c2c(N3CCCC(C(=O)N4CCCC4)C3)ccnc21` (stereo not drawn) [Compound 109, (2Z)-4-hydroxy-2-({1-methyl-4-[3-(pyrrolidin-1-ylcarbonyl)piperidin-1-yl]-1H-pyrrolo[2,3-b]pyridin-3-yl}methylene)-1-benzofuran-3(2H)-one], the melting point is 235 to 240 °C. Further, the pIC50 in data set [1] is 6.82. Also, the pIC50 in data set [2] is 6.60. Further, in data set [3], the pIC50 is 8.36.

Regarding `Cn1cc(/C=C2\Oc3cccc(O)c3C2=O)c2c(-c3cccc(OC(F)(F)F)c3)ccnc21` [Compound 110, (2Z)-4-hydroxy-2-({1-methyl-4-[3-(trifluoromethoxy)phenyl]-1H-pyrrolo[2,3-b]pyridin-3-yl}methylene)-1-benzofuran-3(2H)-one], the melting point lay in the range of 230 to 233 °C. The pIC50 in data set [1] was 6.19. In addition, in data set [2], the pIC50 was less than 5.00. Moreover, the pIC50 in data set [3] was 7.08.

The compound `CN(C)C(=O)c1ccc(-c2ccnc3c2c(/C=C2\Oc4cccc(O)c4C2=O)cn3C)cc1` [Compound 111, 4-{3-[(Z)-(4-hydroxy-3-oxo-1-benzofuran-2(3H)-ylidene)methyl]-1-methyl-1H-pyrrolo[2,3-b]pyridin-4-yl}-N,N-dimethylbenzamide] returned a melting point of 212 to 218 °C. Further, in data set [1], the pIC50 is 7.44. The pIC50 in data set [2] is 7.18. In addition, in data set [3], the pIC50 is 9.30.

As for `CN(C)C1CCN(c2ccnc3c2c(/C=C2\Oc4cccc(O)c4C2=O)cn3C)C1` (stereo not drawn) [Compound 112, (2Z)-2-({4-[3-(dimethylamino)pyrrolidin-1-yl]-1-methyl-1H-pyrrolo[2,3-b]pyridin-3-yl}methylene)-4-hydroxy-1-benzofuran-3(2H)-one], the melting point was determined as 205 °C. Also, the pIC50 in data set [1] was 6.92. In addition, the pIC50 in data set [2] was 6.24. Moreover, the pIC50 in data set [3] was 7.41.

As to `CN(C)Cc1ccc(-c2ccnc3c2c(/C=C2\Oc4cccc(O)c4C2=O)cn3C)cc1` [Compound 113, (2Z)-2-[(4-{4-[(dimethylamino)methyl]phenyl}-1-methyl-1H-pyrrolo[2,3-b]pyridin-3-yl)methylene]-4-hydroxy-1-benzofuran-3(2H)-one], the melting point was 340 to 350 °C. Moreover, in data set [1], the pIC50 was 7.00. The pIC50 in data set [2] is 6.20. Moreover, the pIC50 in data set [3] is 7.70.

`Cn1cc(/C=C2\Oc3cccc(O)c3C2=O)c2c(N3CCC(C(N)=O)CC3)ccnc21` [Compound 114, 1-{3-[(Z)-(4-hydroxy-3-oxo-1-benzofuran-2(3H)-ylidene)methyl]-1-methyl-1H-pyrrolo[2,3-b]pyridin-4-yl}piperidine-4-carboxamide] registered a melting point of 280 to 287 °C. For the same compound, in data set [1], the pIC50 is 7.54. In addition, the negative-log IC50 (pIC50) in data set [2] was 6.90. Also, the pIC50 in data set [3] is 9.15.

In turn, `Cn1cc(/C=C2\Oc3cccc(O)c3C2=O)c2c(N3CCC(CN)CC3)ccnc21` [Compound 115, (2Z)-2-({4-[4-(aminomethyl)piperidin-1-yl]-1-methyl-1H-pyrrolo[2,3-b]pyridin-3-yl}methylene)-4-hydroxy-1-benzofuran-3(2H)-one] yielded a melting point of 230 to 238 °C. Besides, the pIC50 in data set [1] was 6.81. Besides, in data set [2], the pIC50 is 6.68. Moreover, in data set [3], the pIC50 is 7.77.
